Experimental data: patent US20040214767A1, “Regulation of follicular development and ovulation by cytoskeletal genes and gene products” (priority 2002, published 2004)

System: rat primary granulosa cells
Experiment: Effects of CHX and alpha-amanitin on FSH/forskolin-induced expression of cytoskeletal genes in granulosa cells
Assay type: cell-based
Conditions: for β-tubulin mRNA: with or without FSH
Experimental: FIG. 8. Effects of CHX and alpha-amanitin treatment on the FSH/forskolin-induced expression of the cytoskeletal genes. Granulosa cells were isolated from the ovaries of 170 estradiol primed 24 day old immature rats. They were cultured in the medium containing FSH (30 ng/ml) or forskolin (10 microM, FSK) in the presence or absence of CHX (10 μg/ml) for 6 hours (A) or 24 hours (B). In addition, the 24 hours cells were also cultured, likewise, in the presence of alpha-amanitin (30 microg/ml, AMA). Total RNA was isolated and analyzed for mRNAs of TM4, Khc, beta-tubulin and inhibin alpha as described in the description of FIG. 7. Values are the meanfold increase over control (no treatment)±SE. Values were pooled from two separate experiments.
As a step to determine the mechanisms of the FSH-responsive mRNA expression, the granulosa cells were treated with FSH in the presence or absence of a translation inhibitor, CHX, and a transcription inhibitor, alpha amanitin.
Eighteen to twenty-one day old Sprague-Dawley female pups with nursing mothers were purchased from Harlan Breeding Company (Indianapolis, Ind.) and housed in a photoperiod of 14 h light/10 h darkness with light on at 0500 h. For in situ hybridization, rats were injected subcuteneoulsy with 15 IU PMSG (Sigma) in 0.1 ml PBS on 22-23 days of age. Depending on the experiments, PMSG 48 hours-primed rats were injected i.p. with 10 IU hCG. Ovaries were frozen on dry ice immediately after excision and stored at −80 C. […] Ovaries were collected in ice-cold serum-free 4F medium consisting of 15 mM HEPES (pH 7.4), 50% DMEM and 50% Ham's F12 with bovine transferrin (5 micro g/ml), human insulin (2 mg/ml), hydrocortisone (40 ng/ml) and antibiotics, and processed as previously described. Cells were washed three times, resuspended in 4F, plated on serum-coated. Six-well plate (1×10^6 cells in 2 ml per well), and incubated at 37 C for 16 hours. FSH (30 ng/ml) or forskolin (10 micro M) was added to the cell cultures. For the inhibition of protein synthesis or transcription, 10 micro g/ml of cycloheximide (CHX) or alpha-amanitin (30 microg/ml) was, respectively, added 1 h before hormone treatment.
RT-PCR was performed essentially as previously described (Ko, et al., Endocrinology 140:5185-5194. Total RNA (1-2 micro g) was reverse-transcribed at 37 C in a 20 micro L reaction volume using random hexamer (500 ng) and MMLV reverse transcriptase (10 units) (New England BioLabs, Boston, Mass.). Complementary DNA (cDNA) samples (2 micro L) were added to a total 25 micro L reaction mix containing the primers (200 ng each), 0.4 mM dNTP mixture, and Taq DNA polymerase (2.5 U) in 1×PCR buffer (10 mM Tris, pH 8.3, 50 mM KCl, 1.5 mM MgCl2, 0.01% gelatin). All PCR amplifications were carried out for 20, 25 or 30 cycles on a MJ Research Minicycler. PCR products were separated by 2% agarose gel electrophoresis, stained with SYBR® Green I (Molecular Probes), and visualized by phosphoimaging technology (FLA-2000; Fuji, Stamford, Conn.). The following primers were used in the present studies: TM4 (5′-gag aac tcc tga ctg aac tgg acg-3′(SEQ ID NO. 1) and 5′-cca tat tcc ctg ctg agc gta g-3′(SEQ ID NO. 2), 282 bp), Khc (5′-aac tga atc gcc tcc aag cag-3′ and 5′-cga act ggc gag aac tgg atg-3′, 195 bp), β-tubulin (5′-cct gct cat cag caa gat tcg-3′(SEQ ID NO. 3) and 5′-gtg gtg agc tta agg gta cgg, (SEQ ID NOI 4) 210 bp), and inhibin alpha subunit (5′-gct ttc cct ctg ttg acc cac-3′ (SEQ ID NO. 5) and 5′-aga tgt tga ggg cag ctc gat-3′, (SEQ ID NO. 6) 255 bp). L-19 (5′-ctg aag gtc aaa ggg aat gtg-3 (SEQ ID NO. 7) and 5′-gga cag agt ctt gat gat ctc, (SEQ ID NO. 8) 194 bp) oligo nucleotide primers were used to amplify ribosomal protein L-19 as an internal control.

[1] = alpha-amanitin 30 microg/ml, 24 hours
[2] = cells treated with FSH for 24 hours
[3] = CHX, cells treated with FSH for 24 hours
[4] = CHX, cells treated with FSH for six hours

Compound | FSH-induced mRNA expression of all of the cytoskeletal and inhibin alpha genes [1] | β-tubulin mRNA [1] | effect on Khc mRNA level [2] | β-tubulin mRNA level (24 hours FSH in the presence of CHX) | β-tubulin mRNA (CHX 10 μg/ml, 6 hours) | TM4 mRNA level [3] | inhibin alpha mRNA level [3] | Khc mRNA level [4] | TM4 mRNA level [4] | inhibin alpha mRNA level [4]
CC[C@H](C)[C@@H]1NC(=O)CNC(=O)[C@@H]2Cc3c([nH]c4cc(O)ccc34)[S+]([O-])C[C@@H](NC(=O)CNC1=O)C(=O)N[C@@H](CC(N)=O)C(=O)N1C[C@H](O)C[C@H]1C(=O)N[C@@H]([C@@H](C)[C@@H](O)CO)C(=O)N2 (stereo partly drawn) [alpha amanitin, alpha-amanitin] | blocked | blocked both the maintenance and FSH dependent increase | marginal |  |  |  |  |  |  | 
C[C@@H]1C[C@@H]([C@H](O)CC2CC(=O)NC(=O)C2)C(=O)[C@@H](C)C1 [CHX, cycloheximide] |  |  | marginal | decreased to apparent basal level | could not be detected | slightly enhancing | substantially suppressing | lowered the Khc mRNA level, though not completely | increased | increased
